# Assay results reported in PubChem BioAssay (NCI).
#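 The compound was tested at five concentrations on cells cultured in 96-well plates, with a 48-hour exposure period. The concentration for 50% growth inhibition is given as GI50. The concentration for full growth arrest is given as TGI.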
# Key:
# Experiment in all cases: inhibition of tumour cell growth, NCI panel, 48 h
# 786-0 renal = tested on: 786-0 renal
# A549 NSCLC = tested on: A549 NSCLC
# ACHN renal = tested on: ACHN renal
# BT-549 breast = tested on: BT-549 breast
# CAKI-1 renal = tested on: CAKI-1 renal
# CCRF-CEM leukemia = tested on: CCRF-CEM leukemia
# COLO 205 colon = tested on: COLO 205 colon
# DU-145 prostate = tested on: DU-145 prostate
# EKVX NSCLC = tested on: EKVX NSCLC
# HCC-2998 colon = tested on: HCC-2998 colon
# HCT-15 colon = tested on: HCT-15 colon
# HL-60(TB) leukemia = tested on: HL-60(TB) leukemia
# HOP-62 NSCLC = tested on: HOP-62 NSCLC
# HOP-92 NSCLC = tested on: HOP-92 NSCLC
# HT29 colon = tested on: HT29 colon
# K-562 leukemia = tested on: K-562 leukemia
# KM12 colon = tested on: KM12 colon
# LOX IMVI melanoma = tested on: LOX IMVI melanoma
# M14 melanoma = tested on: M14 melanoma
# MDA-MB-231 breast = tested on: MDA-MB-231 breast
# MDA-MB-435 = tested on: MDA-MB-435
# MOLT-4 leukemia = tested on: MOLT-4 leukemia
# NCI-H226 lung = tested on: NCI-H226 lung
# NCI-H23 lung = tested on: NCI-H23 lung
# NCI-H460 lung = tested on: NCI-H460 lung
# NCI-H522 lung = tested on: NCI-H522 lung
# NCI/ADR-RES ovarian = tested on: NCI/ADR-RES ovarian
# OVCAR-3 ovarian = tested on: OVCAR-3 ovarian
# OVCAR-4 ovarian = tested on: OVCAR-4 ovarian
# OVCAR-5 ovarian = tested on: OVCAR-5 ovarian
# OVCAR-8 ovarian = tested on: OVCAR-8 ovarian
# PC-3 prostate = tested on: PC-3 prostate
# RPMI-8226 leukemia = tested on: RPMI-8226 leukemia
# RXF 393 renal = tested on: RXF 393 renal
# SF-268 CNS = tested on: SF-268 CNS
# SF-295 CNS = tested on: SF-295 CNS
# SF-539 CNS = tested on: SF-539 CNS
# SK-MEL-2 melanoma = tested on: SK-MEL-2 melanoma
# SK-MEL-28 melanoma = tested on: SK-MEL-28 melanoma
# SK-MEL-5 melanoma = tested on: SK-MEL-5 melanoma
# SK-OV-3 ovarian = tested on: SK-OV-3 ovarian
# SN12C renal = tested on: SN12C renal
# SNB-19 CNS = tested on: SNB-19 CNS
# SNB-75 CNS = tested on: SNB-75 CNS
# SR leukemia = tested on: SR leukemia
# SW-620 colon = tested on: SW-620 colon
# T-47D breast = tested on: T-47D breast
# TK-10 renal = tested on: TK-10 renal
# U251 CNS = tested on: U251 CNS
# UACC-257 melanoma = tested on: UACC-257 melanoma
# UACC-62 melanoma = tested on: UACC-62 melanoma
# UO-31 renal = tested on: UO-31 renal
# A498 renal = tested on: A498 renal
# HCT-116 colon = tested on: HCT-116 colon
# MCF7 breast = tested on: MCF7 breast
compound,measurement,setting,value
O=c1c(OC/C(=N/O)c2ccccc2)c(-c2ccccc2)oc2ccccc12,GI50,786-0 renal,19 µM
same,TGI,786-0 renal,> 50 µM
same,GI50,A549 NSCLC,30.3 µM
same,TGI,A549 NSCLC,> 50 µM
same,GI50,ACHN renal,10.5 µM
same,TGI,ACHN renal,28 µM
same,GI50,BT-549 breast,13.2 µM
same,TGI,BT-549 breast,26.8 µM
same,GI50,CAKI-1 renal,9.52 µM
same,TGI,CAKI-1 renal,40.8 µM
same,GI50,CCRF-CEM leukemia,0.461 µM
same,TGI,CCRF-CEM leukemia,6.47 µM
same,GI50,COLO 205 colon,14.8 µM
same,TGI,COLO 205 colon,42.9 µM
same,GI50,DU-145 prostate,17.1 µM
same,TGI,DU-145 prostate,> 50 µM
same,GI50,EKVX NSCLC,12.3 µM
same,TGI,EKVX NSCLC,30.1 µM
same,GI50,HCC-2998 colon,9.64 µM
same,TGI,HCC-2998 colon,17.5 µM
same,GI50,HCT-15 colon,17.1 µM
same,TGI,HCT-15 colon,> 50 µM
same,GI50,HL-60(TB) leukemia,12.6 µM
same,TGI,HL-60(TB) leukemia,> 50 µM
same,GI50,HOP-62 NSCLC,20.3 µM
same,TGI,HOP-62 NSCLC,> 50 µM
same,GI50,HOP-92 NSCLC,14.3 µM
same,TGI,HOP-92 NSCLC,> 50 µM
same,GI50,HT29 colon,13.7 µM
same,TGI,HT29 colon,34.3 µM
same,GI50,K-562 leukemia,13.7 µM
same,TGI,K-562 leukemia,> 50 µM
same,GI50,KM12 colon,10.6 µM
same,TGI,KM12 colon,24.6 µM
same,GI50,LOX IMVI melanoma,10.5 µM
same,TGI,LOX IMVI melanoma,19.5 µM
same,GI50,M14 melanoma,19.4 µM
same,TGI,M14 melanoma,> 50 µM
same,GI50,MDA-MB-231 breast,9.39 µM
same,TGI,MDA-MB-231 breast,23.6 µM
same,GI50,MDA-MB-435,10.9 µM
same,TGI,MDA-MB-435,28 µM
same,GI50,MOLT-4 leukemia,12.6 µM
same,TGI,MOLT-4 leukemia,> 50 µM
same,GI50,NCI-H226 lung,21.3 µM
same,TGI,NCI-H226 lung,> 50 µM
same,GI50,NCI-H23 lung,18.1 µM
same,TGI,NCI-H23 lung,> 50 µM
same,GI50,NCI-H460 lung,11.3 µM
same,TGI,NCI-H460 lung,27.5 µM
same,GI50,NCI-H522 lung,17 µM
same,TGI,NCI-H522 lung,> 50 µM
same,GI50,NCI/ADR-RES ovarian,14 µM
same,TGI,NCI/ADR-RES ovarian,42 µM
same,GI50,OVCAR-3 ovarian,8.06 µM
same,TGI,OVCAR-3 ovarian,20.1 µM
same,GI50,OVCAR-4 ovarian,38.6 µM
same,TGI,OVCAR-4 ovarian,> 50 µM
same,GI50,OVCAR-5 ovarian,22.3 µM
same,TGI,OVCAR-5 ovarian,> 50 µM
same,GI50,OVCAR-8 ovarian,21.7 µM
same,TGI,OVCAR-8 ovarian,> 50 µM
same,GI50,PC-3 prostate,8.64 µM
same,TGI,PC-3 prostate,18 µM
same,GI50,RPMI-8226 leukemia,7.07 µM
same,TGI,RPMI-8226 leukemia,15.6 µM
same,GI50,RXF 393 renal,20.8 µM
same,TGI,RXF 393 renal,> 50 µM
same,GI50,SF-268 CNS,11.7 µM
same,TGI,SF-268 CNS,25 µM
same,GI50,SF-295 CNS,11.2 µM
same,TGI,SF-295 CNS,23.2 µM
same,GI50,SF-539 CNS,12.5 µM
same,TGI,SF-539 CNS,28 µM
same,GI50,SK-MEL-2 melanoma,16.4 µM
same,TGI,SK-MEL-2 melanoma,> 50 µM
same,GI50,SK-MEL-28 melanoma,16.6 µM
same,TGI,SK-MEL-28 melanoma,28.9 µM
same,GI50,SK-MEL-5 melanoma,7.88 µM
same,TGI,SK-MEL-5 melanoma,15 µM
same,GI50,SK-OV-3 ovarian,20.3 µM
same,TGI,SK-OV-3 ovarian,> 50 µM
same,GI50,SN12C renal,11.2 µM
same,TGI,SN12C renal,28.7 µM
same,GI50,SNB-19 CNS,15.9 µM
same,TGI,SNB-19 CNS,> 50 µM
same,GI50,SNB-75 CNS,16.8 µM
same,TGI,SNB-75 CNS,> 50 µM
same,GI50,SR leukemia,13.9 µM
same,TGI,SR leukemia,> 50 µM
same,GI50,SW-620 colon,11.4 µM
same,TGI,SW-620 colon,25.4 µM
same,GI50,T-47D breast,14.8 µM
same,TGI,T-47D breast,38.1 µM
same,GI50,TK-10 renal,11.6 µM
same,TGI,TK-10 renal,22.8 µM
same,GI50,U251 CNS,11 µM
same,TGI,U251 CNS,27.3 µM
same,GI50,UACC-257 melanoma,14.1 µM
same,TGI,UACC-257 melanoma,30.4 µM
same,GI50,UACC-62 melanoma,9.2 µM
same,TGI,UACC-62 melanoma,25.2 µM
same,GI50,UO-31 renal,19.2 µM
same,TGI,UO-31 renal,> 50 µM
CCN1C/C(=C\c2ccc(Cl)cc2)C2=NN(c3ccccc3)C(c3ccc(Cl)cc3)C2C1 (stereo unspecified),TGI,786-0 renal,> 100 µM
same,TGI,A498 renal,> 100 µM
same,TGI,A549 NSCLC,> 100 µM
same,TGI,ACHN renal,> 100 µM
same,TGI,BT-549 breast,> 100 µM
same,TGI,COLO 205 colon,> 100 µM
same,TGI,DU-145 prostate,> 100 µM
same,TGI,EKVX NSCLC,> 100 µM
same,TGI,HCT-116 colon,> 100 µM
same,TGI,HCT-15 colon,> 100 µM
same,TGI,HOP-62 NSCLC,> 100 µM
same,TGI,LOX IMVI melanoma,> 100 µM
same,TGI,M14 melanoma,> 100 µM
same,TGI,MCF7 breast,> 100 µM
same,TGI,NCI-H226 lung,> 100 µM
same,TGI,NCI-H23 lung,> 100 µM
same,TGI,NCI-H460 lung,> 100 µM
same,TGI,NCI-H522 lung,> 100 µM
same,TGI,NCI/ADR-RES ovarian,> 100 µM
same,TGI,OVCAR-5 ovarian,> 100 µM
same,TGI,OVCAR-8 ovarian,> 100 µM
same,TGI,PC-3 prostate,> 100 µM
same,TGI,RXF 393 renal,> 100 µM
same,TGI,SF-295 CNS,> 100 µM
same,TGI,SK-MEL-5 melanoma,> 100 µM
same,TGI,SK-OV-3 ovarian,> 100 µM
same,TGI,SNB-19 CNS,> 100 µM
same,TGI,SNB-75 CNS,> 100 µM
same,TGI,TK-10 renal,> 100 µM
same,TGI,UACC-257 melanoma,> 100 µM
same,TGI,UACC-62 melanoma,> 100 µM
same,TGI,UO-31 renal,> 100 µM
